In the OPERA property sets (Mansouri et al. 2018):

Settings: not given

| SMILES | boiling point [°C] | log10 vapour pressure (mmHg) | ready biodegradability | melting point [°C] | log10 Koc (L/kg) | log10 Henry constant (atm·m³/mol) | log10 Koa | log10 biodegradation half-life (days) |
| --- | --- | --- | --- | --- | --- | --- | --- | --- |
| CC(C)OB(OC(C)C)OC(C)C | 140 | 0.875 |  |  |  |  |  |  |
| CC1(C)[C@H](C=C(Cl)Cl)[C@H]1C(=O)OCc1cccc(Oc2ccccc2)c1 |  |  | not readily biodegradable |  |  |  |  |  |
| Cc1ccc(NC(=O)c2ccccc2)cc1 |  |  |  | 158 |  |  |  |  |
| CCCC1COC(Cn2cncn2)(c2ccc(Cl)cc2Cl)O1 (stereo not drawn) |  | -6.38 |  |  | 3.39 |  |  |  |
| COc1ccccc1OC(=O)c1ccccc1 |  |  |  | 57.5 |  |  |  |  |
| c1ccc2c(c1)Nc1ccccc1O2 |  |  |  | 156 |  |  |  |  |
| COC(=O)[C@@H]1CCCN1C(=O)COC(=O)c1ccccc1 |  |  |  | 72.5 |  |  |  |  |
| CCCCOC(=O)c1ccccc1O | 271 |  |  | -5.9 |  |  |  |  |
| FSC(F)(F)F | 148 |  |  |  |  |  |  |  |
| Clc1ccccc1C(c1ccccc1)(c1ccccc1)n1ccnc1 |  |  |  | 148 |  |  |  |  |
| CC(=O)C(=O)CC(C)C | 138 |  |  |  |  |  |  |  |
| C[C@]12N[C@H](Cc3ccccc31)c1ccccc12 |  |  |  | 68.8 |  |  |  |  |
| COc1cccc(O)c1 | 244 | -1.71 | readily biodegradable |  | 1.5 | -7.24 |  |  |
| c1cc2c3c(c4ccc5ccccc5c4cc3c1)CC2 |  |  |  | 174 |  |  |  |  |
| C#CCOS(=O)OC1CCCCC1Oc1ccc(C(C)(C)C)cc1 (stereo not drawn) |  | -6.52 |  |  | 3.6 |  |  |  |
| C=C(C)C(=O)OCc1ccccc1 |  |  | readily biodegradable |  |  |  |  |  |
| O=C(C=Cc1ccco1)C=Cc1ccco1 |  |  |  | 60.5 |  |  |  |  |
| CCOC(=O)C(Cl)Cl | 155 | 0.456 |  |  |  |  |  |  |
| CCCCCC1CCCCC1 | 204 | -0.429 |  | -57.5 |  |  |  |  |
| Cc1cccc(Cl)c1N | 215 |  |  | 2 |  |  |  |  |
| O=C[O-].[NH4+] |  |  |  | 116 |  |  |  |  |
| c1cncc(-c2ccnc(-c3cccnc3)c2)c1 |  |  |  | 148 |  |  |  |  |

| SMILES | boiling point [°C] | log10 vapour pressure (mmHg) | ready biodegradability | melting point [°C] | log10 Koc (L/kg) | log10 Henry constant (atm·m³/mol) | log10 Koa | log10 biodegradation half-life (days) |
| --- | --- | --- | --- | --- | --- | --- | --- | --- |
| CCc1ccc2c(c1)CCCC2 | 244 |  |  | -70 |  |  |  |  |
| C=CBr | 15.8 | 3.01 |  | -138 |  |  |  |  |
| CC(C)(C(=O)O)n1nc2ccccc2n1 |  |  |  | 152 |  |  |  |  |
| O=[N+]([O-])c1ccc2cccnc2c1 |  |  |  | 132 |  |  |  |  |
| O=S(=O)(O)c1ccc(-c2ccc(S(=O)(=O)O)cc2)cc1 |  |  |  | 72.5 |  |  |  |  |
| BrC(c1ccccc1)(c1ccccc1)c1ccccc1 |  |  |  | 153 |  |  |  |  |
| CCC(C)C(C)CC(C)C (stereo not drawn) | 156 |  |  |  |  |  |  |  |
| C=COCCO | 142 |  |  |  |  |  |  |  |
| CCNC(=O)COC(=O)c1ccccc1 |  |  |  | 106 |  |  |  |  |
| C[Si](C)(C)CC(=O)O |  |  |  | 41 |  |  |  |  |
| CCC(CC)OC(C)=O | 133 |  |  |  |  |  |  |  |
| Oc1ccc(-c2ccccc2)cc1Cl |  |  |  | 77 |  |  |  |  |
| S=C1CCCCCN1 |  |  |  | 108 |  |  |  |  |
| Cc1ccc2nc(-c3ccc(N)cc3)sc2c1 | 434 |  |  | 195 |  |  |  |  |
| CN1CCC(=C2c3ccccc3C=Cc3ccccc32)CC1 |  |  |  | 113 |  |  |  |  |
| S=C=Nc1cccc(Br)c1 | 256 |  |  |  |  |  |  |  |
| CCC(C)(O)CCCC(C)C (stereo not drawn) | 196 |  |  | 31.5 |  |  |  |  |
| Nc1ccccc1F | 175 |  |  | -34.6 |  |  |  |  |
| CC(=O)N1CCN(c2ccc(OC[C@H]3CO[C@](Cn4ccnc4)(c4ccc(Cl)cc4Cl)O3)cc2)CC1 |  |  |  | 146 |  |  |  |  |
| CC(C)(c1cc(Br)c(OCCO)c(Br)c1)c1cc(Br)c(OCCO)c(Br)c1 |  |  | not readily biodegradable | 107 |  |  |  |  |
| CCCC(=O)OCCC(C)C | 179 | -0.0223 |  | -73.2 |  |  |  |  |
| CC(CCC(=O)O)(c1ccc(O)cc1)c1ccc(O)cc1 |  |  |  | 172 |  |  |  |  |

| SMILES | boiling point [°C] | log10 vapour pressure (mmHg) | ready biodegradability | melting point [°C] | log10 Koc (L/kg) | log10 Henry constant (atm·m³/mol) | log10 Koa | log10 biodegradation half-life (days) |
| --- | --- | --- | --- | --- | --- | --- | --- | --- |
| Cc1ccc(C)c2ncccc12 | 266 |  |  | 4.5 |  |  |  |  |
| Clc1cc(Cl)c(Cl)c(-c2c(Cl)ccc(Cl)c2Cl)c1 |  |  |  |  |  | -4.25 |  |  |
| Clc1ccc2c(Cl)c(Cl)ccc2c1Cl |  |  |  |  |  |  | 8.28 |  |
| C=CC/C=C/C | 65 | 2.24 |  | -139 |  |  |  |  |
| CC(=O)Oc1ccccc1C(=O)Oc1ccccc1C(=O)O |  |  |  | 159 |  |  |  |  |
| CCCCNC(=O)NS(=O)(=O)c1ccc(C)cc1 |  |  |  | 128 |  |  |  |  |
| C=C(C)CN(CC)c1c([N+](=O)[O-])cc(C(F)(F)F)cc1[N+](=O)[O-] |  | -4.06 |  | 55.5 | 3.6 |  |  |  |
| Cc1ccnc(Cl)c1 | 192 |  |  | 115 |  |  |  |  |
| CCCCC(CC)C(=O)O (stereo not drawn) | 228 | -1.52 |  |  |  |  |  |  |
| CCCCOC(=O)C(C)O (stereo not drawn) | 186 | -0.398 |  | -28 |  |  |  |  |
| CC(C)(O)C(=O)c1ccc(OCCO)cc1 |  |  |  | 89 |  |  |  |  |
| CCCCCC#CCC(=O)O |  |  |  | 17 |  |  |  |  |
| C=COC(C)C | 55.5 |  |  | -140 |  |  |  |  |
| Nc1ccc(S(=O)(=O)Nc2ccnn2-c2ccccc2)cc1 |  |  |  | 181 |  |  |  |  |
| CC(=O)OC(OC(C)=O)c1ccccc1 | 220 |  |  | 46 |  |  |  |  |
| c1c2c(cc3c1CCCC3)CCCC2 | 294 |  |  | 78 |  |  |  |  |
| O=C1c2ccccc2-c2ccc3c4ccc5c6c(ccc(c7ccc1c2c73)c64)C(=O)c1ccccc1-5 |  |  |  | 492 |  |  |  |  |
| Cc1ccc2c(c1)CC=C2 | 207 |  |  |  |  |  |  |  |
| Fc1ccc(N=C=S)cc1 | 228 |  |  | 27 |  |  |  |  |
| CCc1ccccc1C | 165 | 0.417 |  |  |  |  |  | 0.602 |
| COc1ccc(C)c([N+](=O)[O-])c1 | 266 |  |  | 17 |  |  |  |  |
| CC(=O)OCc1ccco1 | 179 |  |  |  |  |  |  |  |

| SMILES | boiling point [°C] | log10 vapour pressure (mmHg) | ready biodegradability | melting point [°C] | log10 Koc (L/kg) | log10 Henry constant (atm·m³/mol) | log10 Koa | log10 biodegradation half-life (days) |
| --- | --- | --- | --- | --- | --- | --- | --- | --- |
| CCC/C=C/CCC | 126 | 1.25 |  | -104 |  |  |  |  |
| ClC(Cl)=C(c1ccc(Cl)cc1)c1ccccc1Cl |  | -5.21 |  |  | 5.49 |  |  |  |
| CN(N=O)c1ccc(N=O)cc1 |  |  |  | 101 |  |  |  |  |
| NC(=O)Cc1ccccc1 |  |  |  | 157 |  |  |  |  |
| COC(=O)c1cc(Cl)cc(N)c1Cl |  |  |  |  | 2.74 |  |  |  |
| O=C(O)c1ccc([N+](=O)[O-])c([N+](=O)[O-])c1 |  |  |  | 166 | 1.53 |  |  |  |
| CCN(CC)c1nc(C)cc(OP(=S)(OC)OC)n1 |  | -4.82 |  | 15 | 3 |  |  |  |
| COc1cccc(CC(=O)O)c1 |  |  |  | 72 |  |  |  |  |
| CCCCCC(=O)OCC | 167 |  |  | -67 | 2.06 |  |  |  |
| COc1ccc(C)c(C)c1 | 202 |  |  |  |  |  |  |  |
| Cc1cc(C)c2cc(C)ccc2c1 |  |  |  | 12 |  |  |  |  |
| CCOC(=O)CC[C@H](N)C(=O)OCC.Cl |  |  |  | 109 |  |  |  |  |
| CCCCCCCCCc1ccc(OP(=O)(Oc2ccccc2)Oc2ccccc2)cc1 | 471 |  |  |  | 4.06 | -7.85 |  |  |
| CCN(C(=O)Oc1cccc(NC(=O)OC(C)C)c1)c1ccccc1 |  |  |  | 110 |  |  |  |  |
| O=C(O)COc1ccc(F)cc1 |  |  |  | 104 |  |  |  |  |
| C[C@H]1O[C@@H](O[C@H]2[C@@H](O)C[C@H](O[C@H]3[C@@H](O)C[C@H](O[C@H]4CC[C@@]5(C)[C@H](CC[C@@H]6[C@@H]5CC[C@]5(C)[C@@H](C7=CC(=O)OC7)CC[C@]65O)C4)O[C@@H]3C)O[C@@H]2C)C[C@H](O)[C@@H]1O |  |  |  | 256 |  |  |  |  |
| CCOCCOC(=O)C=Cc1ccc(OC)cc1 |  |  |  | -25 |  |  |  |  |
| O=C1CCC(=O)N1I |  |  |  | 204 |  |  |  |  |
| O=C1OCc2ccccc21 | 290 | -2.7 | readily biodegradable | 75 |  |  |  |  |
| CC=NNc1ccccc1 |  |  |  | 99.5 |  |  |  |  |

Same assay, conditions: fish

| SMILES | log10 biotransformation half-life (days) |
| --- | --- |
| CCCC1COC(Cn2cncn2)(c2ccc(Cl)cc2Cl)O1 (stereo not drawn) | 0.7 |
| Clc1cc(Cl)c(Cl)c(-c2c(Cl)ccc(Cl)c2Cl)c1 | 2.32 |
